Assay results reported in PubChem BioAssay (NCI).
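Here, GI50 denotes the concentration required for 50% inhibition of growth. At the TGI there is no net growth.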

How the values were obtained:
Assay in all cases: DTP human tumour cell line panel, 384-well format
786-0 renal = system: 786-0 renal
A498 renal = system: A498 renal
A549 NSCLC = system: A549 NSCLC
ACHN renal = system: ACHN renal
BT-549 breast = system: BT-549 breast
CAKI-1 renal = system: CAKI-1 renal
CCRF-CEM leukemia = system: CCRF-CEM leukemia
COLO 205 colon = system: COLO 205 colon
DU-145 prostate = system: DU-145 prostate
EKVX NSCLC = system: EKVX NSCLC
HCT-15 colon = system: HCT-15 colon
HL-60(TB) leukemia = system: HL-60(TB) leukemia
HOP-62 NSCLC = system: HOP-62 NSCLC
HOP-92 NSCLC = system: HOP-92 NSCLC
HS 578T breast = system: HS 578T breast
HT29 colon = system: HT29 colon
IGROV1 ovarian = system: IGROV1 ovarian
K-562 leukemia = system: K-562 leukemia
KM12 colon = system: KM12 colon
LOX IMVI melanoma = system: LOX IMVI melanoma
M14 melanoma = system: M14 melanoma
MALME-3M melanoma = system: MALME-3M melanoma
MDA-MB-231 breast = system: MDA-MB-231 breast
MDA-MB-435 melanoma = system: MDA-MB-435 melanoma
MOLT-4 leukemia = system: MOLT-4 leukemia
NCI-H226 lung = system: NCI-H226 lung
NCI-H23 lung = system: NCI-H23 lung
NCI-H322M lung = system: NCI-H322M lung
NCI-H460 NSCLC = system: NCI-H460 NSCLC
NCI-H522 lung = system: NCI-H522 lung
NCI/ADR-RES ovarian = system: NCI/ADR-RES ovarian
OVCAR-3 ovarian = system: OVCAR-3 ovarian
OVCAR-4 ovarian = system: OVCAR-4 ovarian
OVCAR-5 ovarian = system: OVCAR-5 ovarian
OVCAR-8 ovarian = system: OVCAR-8 ovarian
PC-3 prostate = system: PC-3 prostate
RPMI-8226 leukemia = system: RPMI-8226 leukemia
RXF 393 renal = system: RXF 393 renal
SF-268 CNS = system: SF-268 CNS
SF-295 CNS = system: SF-295 CNS
SF-539 CNS = system: SF-539 CNS
SK-MEL-28 melanoma = system: SK-MEL-28 melanoma
SK-OV-3 ovarian = system: SK-OV-3 ovarian
SN12C renal = system: SN12C renal
SNB-19 CNS = system: SNB-19 CNS
SNB-75 CNS = system: SNB-75 CNS
SR leukemia = system: SR leukemia
SW-620 colon = system: SW-620 colon
T-47D breast = system: T-47D breast
TK-10 renal = system: TK-10 renal
UACC-257 melanoma = system: UACC-257 melanoma
UACC-62 melanoma = system: UACC-62 melanoma
UO-31 renal = system: UO-31 renal

## Nc1ncnc2c1ccn2[C@@H]1O[C@H]([C@H](O)c2ccc(Cl)c(F)c2)[C@@H](O)[C@H]1O
786-0 renal
  GI50: 72.9 µM
  TGI: > 100 µM
A498 renal
  GI50: 85.1 µM
  TGI: > 100 µM
A549 NSCLC
  GI50: > 100 µM
  TGI: > 100 µM
ACHN renal
  GI50: > 100 µM
  TGI: > 100 µM
BT-549 breast
  GI50: > 100 µM
  TGI: > 100 µM
CAKI-1 renal
  GI50: > 100 µM
  TGI: > 100 µM
CCRF-CEM leukemia
  GI50: 33.9 µM
  TGI: > 100 µM
COLO 205 colon
  GI50: > 100 µM
  TGI: > 100 µM
DU-145 prostate
  GI50: > 100 µM
  TGI: > 100 µM
EKVX NSCLC
  GI50: 83.9 µM
  TGI: > 100 µM
HCT-15 colon
  GI50: > 100 µM
  TGI: > 100 µM
HL-60(TB) leukemia
  GI50: 77.1 µM
  TGI: > 100 µM
HOP-62 NSCLC
  GI50: > 100 µM
  TGI: > 100 µM
HOP-92 NSCLC
  GI50: > 100 µM
  TGI: > 100 µM
HS 578T breast
  GI50: > 100 µM
  TGI: > 100 µM
HT29 colon
  GI50: 37.4 µM
  TGI: > 100 µM
IGROV1 ovarian
  GI50: 28.7 µM
  TGI: > 100 µM
K-562 leukemia
  GI50: 32.7 µM
  TGI: > 100 µM
KM12 colon
  GI50: < 0.01 µM
  TGI: > 100 µM
LOX IMVI melanoma
  GI50: > 100 µM
  TGI: > 100 µM
M14 melanoma
  GI50: > 100 µM
  TGI: > 100 µM
MALME-3M melanoma
  GI50: 40.9 µM
  TGI: > 100 µM
MDA-MB-231 breast
  GI50: > 100 µM
  TGI: > 100 µM
MDA-MB-435 melanoma
  GI50: > 100 µM
  TGI: > 100 µM
MOLT-4 leukemia
  GI50: < 0.01 µM
NCI-H226 lung
  GI50: > 100 µM
  TGI: > 100 µM
NCI-H23 lung
  GI50: 52.9 µM
  TGI: > 100 µM
NCI-H322M lung
  GI50: > 100 µM
  TGI: > 100 µM
NCI-H460 NSCLC
  GI50: < 0.01 µM
  TGI: > 100 µM
NCI-H522 lung
  GI50: > 100 µM
  TGI: > 100 µM
NCI/ADR-RES ovarian
  GI50: > 100 µM
  TGI: > 100 µM
OVCAR-3 ovarian
  GI50: > 100 µM
  TGI: > 100 µM
OVCAR-4 ovarian
  GI50: < 0.01 µM
  TGI: > 100 µM
OVCAR-5 ovarian
  GI50: > 100 µM
  TGI: > 100 µM
OVCAR-8 ovarian
  GI50: > 100 µM
  TGI: > 100 µM
PC-3 prostate
  GI50: 97.7 µM
  TGI: > 100 µM
RPMI-8226 leukemia
  GI50: 12.6 µM
  TGI: > 100 µM
RXF 393 renal
  GI50: > 100 µM
  TGI: > 100 µM
SF-268 CNS
  GI50: > 100 µM
  TGI: > 100 µM
SF-295 CNS
  GI50: > 100 µM
  TGI: > 100 µM
SF-539 CNS
  GI50: > 100 µM
  TGI: > 100 µM
SK-MEL-28 melanoma
  GI50: > 100 µM
  TGI: > 100 µM
SK-OV-3 ovarian
  GI50: 50.3 µM
  TGI: > 100 µM
SN12C renal
  GI50: 41.6 µM
  TGI: > 100 µM
SNB-19 CNS
  GI50: > 100 µM
  TGI: > 100 µM
SNB-75 CNS
  GI50: > 100 µM
  TGI: > 100 µM
SR leukemia
  GI50: < 0.01 µM
  TGI: > 100 µM
SW-620 colon
  GI50: > 100 µM
  TGI: > 100 µM
T-47D breast
  GI50: < 0.01 µM
  TGI: > 100 µM
TK-10 renal
  GI50: > 100 µM
  TGI: > 100 µM
UACC-257 melanoma
  GI50: > 100 µM
  TGI: > 100 µM
UACC-62 melanoma
  GI50: > 100 µM
  TGI: > 100 µM
UO-31 renal
  GI50: > 100 µM
  TGI: > 100 µM
